Measurements reported in BindingDB's records for doi:10.1021/jm050825p (National Institute of Allergy and Infectious Diseases, 2006).

Assays:
[1] = target: T1, 3-oxoacyl-[acyl-carrier-protein] synthase 2 (Mycobacterium tuberculosis (strain ATCC 25618 / H37Rv), UniProt P9WQD7); assay: Inhibitory activity against KasB from Mycobacterium tuberculosis H37Rv
T1 sequence (P9WQD7 whole entry): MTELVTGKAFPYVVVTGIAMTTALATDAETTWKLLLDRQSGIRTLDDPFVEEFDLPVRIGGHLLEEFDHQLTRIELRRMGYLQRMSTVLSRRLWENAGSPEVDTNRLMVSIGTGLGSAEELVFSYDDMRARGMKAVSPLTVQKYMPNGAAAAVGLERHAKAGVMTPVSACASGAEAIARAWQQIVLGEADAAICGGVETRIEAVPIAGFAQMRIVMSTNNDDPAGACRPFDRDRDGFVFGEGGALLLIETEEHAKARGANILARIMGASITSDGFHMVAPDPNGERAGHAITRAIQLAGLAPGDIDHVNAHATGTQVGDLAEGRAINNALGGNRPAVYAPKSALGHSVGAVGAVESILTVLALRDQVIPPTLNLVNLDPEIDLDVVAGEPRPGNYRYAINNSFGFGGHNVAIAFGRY

[2] = target: T2, 3-oxoacyl-[acyl-carrier-protein] synthase 3 (Mycobacterium tuberculosis (strain ATCC 25618 / H37Rv), UniProt P9WNG3); assay: Inhibitory activity against FabH from Mycobacterium tuberculosis H37Rv
T2 sequence (P9WNG3 whole entry): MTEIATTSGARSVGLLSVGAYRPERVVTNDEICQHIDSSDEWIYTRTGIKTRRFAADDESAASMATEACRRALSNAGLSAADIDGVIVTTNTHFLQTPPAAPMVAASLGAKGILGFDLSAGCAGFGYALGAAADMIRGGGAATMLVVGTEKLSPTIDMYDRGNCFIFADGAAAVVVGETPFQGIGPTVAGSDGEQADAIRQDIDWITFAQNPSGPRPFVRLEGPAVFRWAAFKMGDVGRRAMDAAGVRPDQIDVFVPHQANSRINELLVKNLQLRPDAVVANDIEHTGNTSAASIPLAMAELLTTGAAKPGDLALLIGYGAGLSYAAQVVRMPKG

[3] = target: T3, 3-oxoacyl-[acyl-carrier-protein] synthase 1 (Escherichia coli (strain K12), UniProt P0A953); assay: Inhibitory activity against FabB from Escherichia coli ANSI
T3 sequence (P0A953 whole entry): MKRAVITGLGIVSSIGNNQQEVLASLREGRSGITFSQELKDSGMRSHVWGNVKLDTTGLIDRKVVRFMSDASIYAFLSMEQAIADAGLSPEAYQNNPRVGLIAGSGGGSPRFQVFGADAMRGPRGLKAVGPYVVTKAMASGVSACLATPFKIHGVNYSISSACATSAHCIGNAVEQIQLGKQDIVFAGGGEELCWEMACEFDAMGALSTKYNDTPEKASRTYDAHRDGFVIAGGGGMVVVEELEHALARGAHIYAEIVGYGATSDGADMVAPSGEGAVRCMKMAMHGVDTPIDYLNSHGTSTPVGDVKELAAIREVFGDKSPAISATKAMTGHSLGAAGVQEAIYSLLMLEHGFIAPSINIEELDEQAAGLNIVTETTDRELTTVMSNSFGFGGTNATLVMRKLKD

[4] = target: T4, 3-oxoacyl-[acyl-carrier-protein] synthase 3 (Escherichia coli, UniProt C3TDZ2); assay: Inhibitory activity against FabH from Escherichia coli ANSI
T4 sequence (C3TDZ2 whole entry): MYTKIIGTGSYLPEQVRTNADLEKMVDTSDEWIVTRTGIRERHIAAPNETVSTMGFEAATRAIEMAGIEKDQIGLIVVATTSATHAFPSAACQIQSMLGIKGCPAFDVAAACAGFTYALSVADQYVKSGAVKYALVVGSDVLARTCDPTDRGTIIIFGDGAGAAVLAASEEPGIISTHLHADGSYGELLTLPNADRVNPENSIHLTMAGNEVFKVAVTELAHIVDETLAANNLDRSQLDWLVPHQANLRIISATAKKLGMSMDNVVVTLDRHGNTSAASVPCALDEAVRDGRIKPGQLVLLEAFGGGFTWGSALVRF

| Compound | IC50 [1] [µM] | IC50 [2] [µM] | IC50 [3] [µM] | IC50 [4] [µM] |
| --- | --- | --- | --- | --- |
| CCCCCC(C)C1(C)SC(=O)C(C)C1=O (stereo unspecified) [3,5-dimethyl-4-hydroxy-5-(1-methylhexyl)-5H-thiophen-2-one] | > 1000 | > 1000 | > 1000 | > 1000 |
| CCC(C)C1(C)SC(=O)C(C)C1=O (stereo unspecified) [3,5-dimethyl-4-hydroxy-5-(1-methylpropyl)-5H-thiophen-2-one] |  | > 100 |  |  |
| CC1C(=O)SC(C)(C(C)c2ccccc2)C1=O (stereo unspecified) [3,5-dimethyl-4-hydroxy-5-(1-phenylethyl)-5H-thiophen-2-one] | > 1000 | > 1000 | > 1000 | > 1000 |
| Cc1cc(C)c(CC2(C)SC(=O)C(C)C2=O)c(C)c1 (stereo unspecified) [3,5-dimethyl-4-hydroxy-5-(2,4,6-trimethylbenzyl)-5H-thiophen-2-one] | > 1000 | > 1000 | > 1000 | > 1000 |
| COc1ccccc1CC1(C)SC(=O)C(C)C1=O (stereo unspecified) [3,5-dimethyl-4-hydroxy-5-(2-methoxybenzyl)-5H-thiophen-2-one] | > 1000 | > 100 | > 1000 | > 1000 |
| Cc1ccccc1CC1(C)SC(=O)C(C)C1=O (stereo unspecified) [3,5-dimethyl-4-hydroxy-5-(2-methylbenzyl)-5H-thiophen-2-one] | > 1000 | > 1000 | > 1000 | > 1000 |
| Cc1cccc(CC2(C)SC(=O)C(C)C2=O)c1 (stereo unspecified) [3,5-dimethyl-4-hydroxy-5-(3-methylbenzyl)-5H-thiophen-2-one] | > 1000 | > 1000 | > 1000 | > 1000 |
| CC(C)CCC1(C)SC(=O)C(C)C1=O (stereo unspecified) [3,5-dimethyl-4-hydroxy-5-(3-methylbutyl)-5H-thiophen-2-one] | > 1000 | > 1000 | > 1000 | > 1000 |
| CC1C(=O)SC(C)(CCCc2ccccc2)C1=O (stereo unspecified) [3,5-dimethyl-4-hydroxy-5-(3-phenylpropyl)-5H-thiophen-2-one] | > 1000 | > 1000 | > 1000 | > 1000 |
| CC1C(=O)SC(C)(Cc2cccc(C(F)(F)F)c2)C1=O (stereo unspecified) [3,5-dimethyl-4-hydroxy-5-(3-trifluoromethylbenzyl)-5H-thiophen-2-one] | > 1000 | > 1000 | > 1000 | > 1000 |
| Cc1ccc(CC2(C)SC(=O)C(C)C2=O)cc1 (stereo unspecified) [3,5-dimethyl-4-hydroxy-5-(4-methylbenzyl)-5H-thiophen-2-one] | > 1000 | > 1000 | > 1000 | > 1000 |
| CC1C(=O)SC(C)(Cc2ccc([N+](=O)[O-])cc2)C1=O (stereo unspecified) [3,5-dimethyl-4-hydroxy-5-(4-nitrobenzyl)-5H-thiophen-2-one] | > 1000 | > 1000 | > 1000 | > 1000 |
| CC1C(=O)SC(C)(Cc2ccc(C(F)(F)F)cc2)C1=O (stereo unspecified) [3,5-dimethyl-4-hydroxy-5-(4-trifluoromethylbenzyl)-5H-thiophen-2-one] |  | > 100 |  |  |
| CC/C=C/CC1(C)SC(=O)C(C)C1=O (stereo unspecified) [3,5-dimethyl-4-hydroxy-5-((E)-pent-2-enyl)-5H-thiophen-2-one] | > 1000 | > 1000 | > 1000 | > 1000 |
| CC[C@H](C)CC1(C)SC(=O)C(C)C1=O (stereo partly drawn) [3,5-dimethyl-4-hydroxy-5-((S)2-methylbutyl)-5H-thiophen-2-one] |  |  |  | > 100 |
| CC1C(=O)SC(C)(Cc2ccc3ccccc3c2)C1=O (stereo unspecified) [3,5-dimethyl-4-hydroxy-5-(naphthalen-2-ylmethyl)-5H-thiophen-2-one] | > 1000 | > 100 | > 1000 | > 1000 |
| CCCCCCCCCC1(C)SC(=O)C(C)C1=O (stereo unspecified) [3,5-dimethyl-4-hydroxy-5-nonyl-5H-thiophen-2-one] | > 1000 | > 100 | > 1000 | > 100 |

| Compound | IC50 [1] [µM] | IC50 [2] [µM] | IC50 [3] [µM] | IC50 [4] [µM] |
| --- | --- | --- | --- | --- |
| C=CCCCCCCC1(C)SC(=O)C(C)C1=O (stereo unspecified) [3,5-dimethyl-4-hydroxy-5-oct-7-enyl-5H-thiophen-2-one] | > 1000 | > 1000 | > 1000 | > 1000 |
| CC1C(=O)SC(C)(CCc2ccccc2)C1=O (stereo unspecified) [3,5-dimethyl-4-hydroxy-5-phenethyl-5H-thiophen-2-one] | > 1000 | > 1000 | > 1000 | > 1000 |
| CCCCCCCCCCCCCCC1(C)SC(=O)C(C)C1=O (stereo unspecified) [3,5-dimethyl-4-hydroxy-5-tetradecyl-5H-thiophen-2-one] |  | 80 | > 100 | 100 |
| CCCCCCCCCCCCCC1(C)SC(=O)C(C)C1=O (stereo unspecified) [3,5-dimethyl-4-hydroxy-5-tridecyl-5H-thiophen-2-one] |  | 80 | > 100 | 100 |
| CCCCCCCCCCCC1(C)SC(=O)C(C)C1=O (stereo unspecified) [3,5-dimethyl-4-hydroxy-5-undecyl-5H-thiophen-2-one] | > 1000 |  | > 1000 | > 100 |
| Cc1ccc(C)c(CC2(C)SC(=O)C(C)C2=O)c1 (stereo unspecified) [3,5-dimethyl-5-(2,5-dimethylbenzyl)-4-hydroxy-5H-thiophen-2-one] | > 1000 | > 1000 | > 1000 | > 1000 |
| CCCCC(CC)CC1(C)SC(=O)C(C)C1=O (stereo unspecified) [3,5-dimethyl-5-(2-ethylhexyl)-4-hydroxy-5H-thiophen-2-one] | > 1000 | > 1000 | > 1000 | > 1000 |
| COc1cc(CC2(C)SC(=O)C(C)C2=O)cc(OC)c1 (stereo unspecified) [3,5-dimethyl-5-(3,5-dimethoxybenzyl)-4-hydroxy-5H-thiophen-2-one] | > 1000 | > 1000 | > 1000 | > 1000 |
| CC1C(=O)SC(C)(Cc2ccc(F)cc2)C1=O (stereo unspecified) [3,5-dimethyl-5-(4-fluorobenzyl)-4-hydroxy-5H-thiophen-2-one] | > 1000 | > 100 | > 1000 | > 1000 |
| CCCCCCCC1(C)SC(=O)C(C)C1=O (stereo unspecified) [3,5-dimethyl-5-heptyl-4-hydroxy-5H-thiophen-2-one] | > 1000 | > 1000 | > 1000 | > 1000 |
| CCCCCCCCC1(C)SC(=O)C(C)C1=O (stereo unspecified) [4-Hydroxy-3,5-dimethyl-5-octyl-5H-thiophen-2-one] |  | > 100 |  | > 100 |
| CC1C(=O)SC(C)(Cc2ccc(Cl)cc2Cl)C1=O (stereo unspecified) [5-(2,4-dichlorobenzyl)-3,5-dimethyl-4-hydroxy-5H-thiophen-2-one] |  | > 100 |  |  |
| CC1C(=O)SC(C)(Cc2ccc(Cl)c(Cl)c2)C1=O (stereo unspecified) [5-(3,4-dichlorobenzyl)-3,5-dimethyl-4-hydroxy-5H-thiophen-2-one] |  | > 100 |  | > 100 |
| CC(C)=CCC/C(C)=C/CC1(C)SC(=O)C(C)C1=O (stereo unspecified) [5-((E)-3,7-Dimethyl-octa-2,6-dienyl)-4-hydroxy-3,5-dimethyl-5H-thiophen-2-one] |  |  |  | 100 |
| CCCCCCCCCCC1(C)SC(=O)C(C)C1=O (stereo unspecified) [5-Decyl-4-hydroxy-3,5-dimethyl-5H-thiophen-2-one] |  | > 100 |  | 100 |
| CC1C(=O)SC(C)(C2CCCCC2)C1=O (stereo unspecified) [5-cyclohexyl-3,5-dimethyl-4-hydroxy-5H-thiophen-2-one] |  | > 100 |  |  |
| CC1C(=O)SC(C)(CC2CC2)C1=O (stereo unspecified) [5-cyclopropylmethyl-3,5-dimethyl-4-hydroxy-5H-thiophen-2-one] |  |  |  | > 100 |
